Results as given in US9522160B2, “Ophthalmic formulations” (Inotek Pharmaceuticals Corporation, priority 2013, dated 2016).

Legend:
[1] = system: normotensive monkeys; details: Compound A in combination with latanoprost; cited from earlier work
[2] = system: retinal ganglion cells; details: formulation of Compound A; cited from earlier work
[3] = Stability study of a 3% suspension of Compound A (Formulation 3) spiked with latanoprost; latanoprost and latanoprost acid by HPLC; format: physicochemical
Method: Latanoprost is added, usually aseptically, to the Formulation after the curing step or after all other formulation steps as described above. For example latanoprost can be spiked into Formulation 3 with Compound A at 3.0% (Example 5 above) to prepare a unit dosage of a combination of Compound A with a concentration of latanoprost of about 50 ug/ml. A stability study has been done to study the stability of a combination of a suspension of Compound A as Formulation 3 and latanoprost. The stability study is described below.
A 10 mL sample of a 3% suspension of Compound A spiked with latanoprost at 50 μg/mL was used for the stability study. Ethanol was used to disperse the latanoprost into the suspension of Compound A. The final solution ethanol target was 0.5% so for 10 mLs of the suspension, the latanoprost was dissolved in 50 μL of ethanol.
For 10 mls of the suspension, 0.5 mg of latanoprost was needed for the spike. A 50 μL sample of a commercial solution containing 10 mg/mL of latanoprost in methyl acetate was taken and the solvent removed under vacuum. The residue was taken up in 50 μL of ethanol.
A 9.950 mL sample of the suspension, taken with a 5 mL autopipette (2×4.975 mL) was spiked with the ethanol solution with mixing.
After taking a 500 μL T0 sample, the bulk solution was divided into 3 containers that were set down at 2-8° C., 25° C./60RH and 40° C./75RH.
The solution in this case would be 0.5 mg in 8.5 mL volume or […] of latanoprost in the suspension. Therefore for analysis, the theoretical latanoprost in solution after a 50% dilution with acetonitrile was 29.4 μg/mL.
A calibration curve of latanoprost acid was also prepared using the commercial solution that contained 10 mg/mL in methyl acetate.
In contrast to the latanoprost standards, these solutions were prepared in 100% acetonitrile.
The solutions injected were 5, 2.5 and 1.25 μg/mL solutions.
The stability samples were prepared by vortex mixing and sonication of the suspension followed by a 50% dilution with acetonitrile. After centrifugation the supernatant was injected on the HPLC.
The assay results are shown below in Table 2 where the calculated concentration is shown in μg/mL. (The theory concentration is 29.4 μg/ml),
4 week samples. For the 4 week 25° C./60 and 40° C./75 samples the calculated latanoprost acid values were 0.4 and 0.3 μg/mL respectively. The impurities increased slightly at 3 months. For the 3 month 25° C./60 and 40° C./75 samples the calculated latanoprost acid values were 0.63 and 3.92 μg/mL respectively.
Except for the 40° C./75 sample at 3 months the values for all other samples were below the calibration curve concentrations and therefore below the detection level of the method.

O=[N+]([O-])OC[C@H]1O[C@@H](n2cnc3c(NC4CCCC4)ncnc32)[C@H](O)[C@@H]1O [Compound A, ((2R,3S,4R,5R)-5-(6-(cyclopentylamino)-9H-purin-9-yl)-3,4-dihydroxytetrahydrofuran-2-yl)methyl nitrate]
IOP reduction [1]: significant IOP reduction
neuroprotective effect on retinal ganglion cells [2]: neuroprotective effect

CC(C)OC(=O)CCC/C=C\C[C@@H]1[C@@H](CC[C@@H](O)CCc2ccccc2)[C@H](O)C[C@@H]1O [Latanoprost, latanoprost]
Latanoprost Assay Results ([3]; 2-8° C., 2 Weeks): 32.29 µg/mL
Latanoprost Assay Results (% T0) ([3]; 2-8° C., 2 Weeks): 109 % T0
Latanoprost Assay Results (% T0) ([3]; 2-8° C., 3 Months): 121.1 % T0
Latanoprost Assay Results ([3]; 2-8° C., 3 Months, sample contained some latanoprost impurities): 35.63 µg/mL
Latanoprost Assay Results ([3]; 2-8° C., 4 Weeks): 33.97 µg/mL
Latanoprost Assay Results (% T0) ([3]; 2-8° C., 4 Weeks): 115 % T0
Latanoprost Assay Results ([3]; 25° C./60, 2 Weeks): 32.37 µg/mL
Latanoprost Assay Results (% T0) ([3]; 25° C./60, 2 Weeks): 110 % T0
Latanoprost Assay Results (% T0) ([3]; 25° C./60, 3 Months): 103.5 % T0
Latanoprost Assay Results ([3]; 25° C./60, 3 Months, sample contained some latanoprost impurities): 30.42 µg/mL
Latanoprost Assay Results (% T0) ([3]; 25° C./60, 4 Weeks): 112 % T0
Latanoprost Assay Results ([3]; 25° C./60, 4 Weeks, sample contained some latanoprost impurities): 32.90 µg/mL
Latanoprost Assay Results ([3]; 40° C./75, 2 Weeks): 31.35 µg/mL
Latanoprost Assay Results (% T0) ([3]; 40° C./75, 2 Weeks): 106 % T0
Latanoprost Assay Results (% T0) ([3]; 40° C./75, 3 Months): 89.0 % T0
Latanoprost Assay Results ([3]; 40° C./75, 3 Months, sample contained some latanoprost impurities): 26.18 µg/mL
Latanoprost Assay Results (% T0) ([3]; 40° C./75, 4 Weeks): 101 % T0
Latanoprost Assay Results ([3]; 40° C./75, 4 Weeks, sample contained some latanoprost impurities): 29.90 µg/mL
Latanoprost Assay Results ([3]; T0, 3% Compound A suspension spiked with latanoprost, 50% dilution with acetonitrile, theory concentration 29.4 μg/ml): 29.49 µg/mL

O=C(O)CCC/C=C\C[C@@H]1[C@@H](CC[C@@H](O)CCc2ccccc2)[C@H](O)C[C@@H]1O [latanoprost acid]
latanoprost acid present in stability sample ([3]; 2-8° C., 4 week sample): No latanoprost acid was present
latanoprost acid present in stability sample ([3]; 2 week samples): No latanoprost acid was present
latanoprost acid present in stability sample ([3]; T0 sample): No latanoprost acid was present
